Measurements reported in patent US10798942B2, “Abiotic stress tolerance” (SYNGENTA PARTICIPATIONS AG, priority 2016, dated 2020).

Test system: rice plants
Assay: Multi-year analysis for 2015-2016 of field trials (17 trials)
Format: in vivo, Oryza sativa L.
Conditions: 2015-2016, 17 trials; for Thousand grain weight (g/1000 seed): UTC 17.01; for Empty spikelets (number per 12 rice hills): UTC 5636; for Yield at 14% MC (kg/ha): UTC 6318
Experimental: Rice (Oryza sativa L.) of the local varieties ADT43, ADT45 and NK5251 were mechanically transplanted at four plants per hill with a plant spacing of 16 cm and a row spacing of 30 cm. All trials were performed in good level of water management. Fertilizer was applied in accordance with the best local practice across the trial area. Commercial treated seeds (no neonicotinoids as seed treatments) were used. Weed control was according to the best local practice in order to provide excellent weed control. Foliar fungicides and insecticides were applied according to common practice (no products that contain neonicotinoids or strobilurins). The trial design was a randomized bloc design. Plot size was 40 m^2 (4 m width [12 rows] by 10 m row length). Each trial had four replicates. In total, eleven trials were conducted. The compound of formula (Ia) was applied at a rate of 10 g ai/ha with small-plot hand-held boom sprayer. Application of the compound was as broadcast foliar spray in close proximity to leaf/canopy surface (25-40 cm distance from the crop). The used spray volumes were between 250 L/ha and 500 L/ha. Application was done either at panicle initiation (BBCH 30), at panicle formation (BBCH 32), at spikelet differentiation (BBCH 35), at meiosis (BBCH 39) or at heading (BBCH 51). In some experiments, the compound was applied twice (2×10 g ai/ha) at consecutive growth stages (i.e., BBCH 30+32, BBCH 32+35, BBCH 35+39, and BBCH 39+51). Tolerance to heat stress was assessed by measuring the following yield components: number of panicles per area, number of grains per panicle, percentage of ripened (filled) grains, number of tillers per area, percentage of productive tillers, grain yield per area at 14% moisture and thousand grain weight (TGVV). Further trials were conducted in the Tamil Nadu rice production area (India) in 2016 using the protocol as described above using rice variety ADT45, with treatment timings of panicle initiation (BBCH 30), panicle formation (BBCH 32), spikelet differentiation (BBCH 35) and meiosis (BBCH 39) only. The compound of formula (Ia) was applied at a rate of 10 g Al/ha. Grain yield was measured at 14% moisture content (MC).

## COc1cccc(Nc2nc(F)nc3[nH]cnc23)c1 [formula (Ia)]
BBCH 30 at application
  Empty spikelets, % change compared to UTC: −12.5%
  Thousand grain weight, % change compared to UTC: +1.3%
  Yield at 14% MC, % change compared to UTC: +4.1%
  Thousand grain weight (g/1000 seed): 17.24 g/1000 seed
  Empty spikelets (number per 12 rice hills): 4927 number per 12 rice hills
  Yield at 14% MC (kg/ha): 6583 kg/ha
BBCH 32 at application
  Empty spikelets, % change compared to UTC: −9.2%
  Thousand grain weight, % change compared to UTC: +1.4%
  Yield at 14% MC, % change compared to UTC: +6.5%
  Thousand grain weight (g/1000 seed): 17.25 g/1000 seed
  Empty spikelets (number per 12 rice hills): 5115 number per 12 rice hills
  Yield at 14% MC (kg/ha): 6727 kg/ha
BBCH 35 at application
  Empty spikelets, % change compared to UTC: −7.6%
  Thousand grain weight, % change compared to UTC: +1.3%
  Yield at 14% MC, % change compared to UTC: +6.3%
  Thousand grain weight (g/1000 seed): 17.23 g/1000 seed
  Empty spikelets (number per 12 rice hills): 5206 number per 12 rice hills
  Yield at 14% MC (kg/ha): 6713 kg/ha
BBCH 39 at application
  Empty spikelets, % change compared to UTC: −8.3%
  Thousand grain weight, % change compared to UTC: +1.4%
  Yield at 14% MC, % change compared to UTC: +5.2%
  Thousand grain weight (g/1000 seed): 17.25 g/1000 seed
  Empty spikelets (number per 12 rice hills): 5170 number per 12 rice hills
  Yield at 14% MC (kg/ha): 6643 kg/ha
